# In patent US10617654B2, “Use of fenoterol and fenoterol analogues in the treatment of glioblastomas and astrocytomas” (priority 2010, dated 2020):
# “And” between values parts separate entries of the source, which are not always exact repeats. Equal values may be shown once. Read-outs that look alike come from different tables or passages of the source.
# Assays:
# [1] = for Individual plasma concentration: individual rat; for Individual plasma concentration / Plasma concentration, Average / systemic exposure (AUC) compared to (R,R)-fenoterol: 5 mg/kg IV; for Plasma concentration, Average / A (zero time intercept, alpha phase) / AUC / B (zero time intercept, beta phase) / Cl / T1/2 (K10) / Vss / systemic exposure (AUC) compared to (R,R)-fenoterol: rats; for A (zero time intercept, alpha phase) / AUC / B (zero time intercept, beta phase) / Cl / T1/2 (K10) / Vss: 5 mg/kg intravenous, two-compartment open model
# Method: Dose calculations (mg/kg) were based on the individual body weight measured on the day of treatment. Study duration for pharmacokinetic studies was 6 hours. […] Urine was collected for 0-6 hours and 6 to 24 hours from 3 rats in each treatment group.
# In the two-compartment model, the drug distributes into two compartments, the central compartment and the tissue, or peripheral compartment. The central compartment represents the blood, extracellular fluid, and highly perfused tissues. The drug distributes rapidly and uniformly in the central compartment. A second compartment, known as the tissue or peripheral compartment, contains tissues in which the drug equilibrates more slowly. Drug transfer between the two compartments is assumed to take place by first-order processes.
# The following abbreviations are utilized in Table 4 below: alpha—macro rate constant associated with the distribution phase; beta—macro rate constant associated with the elimination phase; A, B—zero time intercept associated with the alpha phase and beta phase, respectively; AUC—area under the curve; T1/2 (K10)—half-life associated with the rate constant K10; K10—elimination rate—rate at which the drug leaves the system from the central compartment; K12—rate at which drug enters tissue compartment from the central compartment; K21—rate at which drug enters central compartment from tissue compartment; V1—volume of distribution of the central compartment; V2—volume of distribution of the tissue compartment; Vss—volume of distribution at steady state; and Cl—clearance.
# [2] = tested on: 1321N1 cells; assay: Cell cycle distribution by flow cytometry in 1321N1 cells; format: cell-based, human
# Source text: Untreated cells were used as controls.
# [3] = tested on: p27, phospho-Akt, cyclin D1, cyclin A, ERK1/2 in 1321N1 cells; assay: Western blot analysis of G1 arrest proteins in 1321N1 cells; format: cell-based, human
# Source text: The ECL Plus Western Blotting Detection System of Amersham Biosciences (Piscataway, N.J.) and the procedure recommended by the manufacturer were used for the detection of antigens. Protein bands were quantified by analyzing the images obtained using an Alphaimager™ S-3400 (Alpha Innotech Corp., San Leandro, Calif.).
# [4] = Brain and plasma analysis of [3H]-(R,R)-methoxyfenoterol after IV administration; format: in vivo, male Sprague-Dawley rats; conditions: rats, IV
# Method: An overview of the research study design for evaluating the brain-to-plasma distribution of [^3H]
# (specific activity 57 Ci/mmol); vehicle was sterile saline, 0.9% sodium chloride, USP. Dose formulations were prepared on the day of the study. The amount of radioactivity in the dose formulation was determined by liquid scintillation. The study lasted for an hour and radioactivity levels in plasma and brain tissue were evaluated at the conclusion of the study. Approximately 5 mls of whole blood was collected. Blood samples were collected via cardiac puncture, transferred into a tube containing K3EDTA as the anticoagulant and kept on wet ice until processed to plasma. To generate plasma, samples were centrifuged within 15 minutes of collection at 2,500 RPM for 15 minutes at room temperature. Plasma was divided equally into three labeled cryovials and stored on ample dry ice until transferred to a freezer set at ≤−20° C. for storage until analysis. Duplicate aliquots were weighed and then combined with scintillation cocktail. The [^3H] radioactivity was determined on a liquid scintillation counter. Brain samples were snap frozen in liquid nitrogen and stored at ≤−70° C. until analysis. Whole brain tissue was homogenized and the weight of the homogenate was determined. Duplicate aliquots from the homogenate were weighed, solubilized and then combined with scintillation cocktail. The [^3H] radioactivity was determined on a liquid scintillation counter.
# [5] = tested on: 1321N1 xenograft; assay: 1321N1 xenograft implanted in the flank of SKID mice; format: in vivo; conditions: IP twice a day; day 3-10 30 mg/kg/day, day 10-42 50 mg/kg/day
# [6] = tested on: 1321N1 cells; assay: Inhibition of mitogenesis, [3H]-thymidine incorporation in 1321N1 cells; format: cell-based, human
# [7] = tested on: rat cardiomyocyte; assay: Rat cardiomyocyte contractility model; format: cell-based
# [8] = Homo sapiens, 1321-N1, read-out: Mitogenesis Inhibition IC50
Compound,"Plasma concentration, Average ([1]; 15 min)","Plasma concentration, Average ([1]; 30 min)","Plasma concentration, Average ([1]; 60 min)","Plasma concentration, Average ([1]; 120 min)","Plasma concentration, Average ([1]; 240 min)","Plasma concentration, Average ([1]; 300 min)","Plasma concentration, Average ([1]; 360 min)","A (zero time intercept, alpha phase) [1]",AUC [1],"B (zero time intercept, beta phase) [1]",Cl [1],T1/2 (K10) [1],Vss [1],"systemic exposure (AUC) compared to (R,R)-fenoterol [1]",EC50 [7],"IC50 [6, 8]",also measured
"C[C@H](Cc1ccc(O)cc1)NC[C@H](O)c1cc(O)cc(O)c1 [(R,R)-1, (R,R)-(−)-Fenoterol]",360 ng/mL,340 ng/mL,50 ng/mL,20 ng/mL,10 ng/mL,5 ng/mL,60 ng/mL,1.6300 µg/mL,29.6861 µg·min/mL,0.0577 µg/mL,51.54 mL/min,12.19 min,1911.70 mL,–,–,–,"Individual plasma concentration ([1]; 15 min): 0.36 µg/mL; Individual plasma concentration ([1]; 30 min): 0.17 µg/mL and 0.50 µg/mL; Individual plasma concentration ([1]; 60 min): 0.05 µg/mL; Individual plasma concentration ([1]; 120 min): 0.03 µg/mL and 0.01 µg/mL; Individual plasma concentration ([1]; 300 min): 0.005 µg/mL; Individual plasma concentration ([1]; 360 min): 0.08 µg/mL and 0.03 µg/mL; lowest dose arresting the cell cycle [2]: 0.1 nM; phosphorylation of ERK1/2 [3]: only a modest effect; protein expression of cyclin A [3]: down-regulated; protein expression of cyclin D1 [3]: down-regulated; phosphorylation of Akt at Ser-473 ([3]; dose dependent, nanomolar concentrations): inhibited phosphorylation; protein levels of cyclin-dependent kinase inhibitor p27 ([3]; nanomolar concentrations): significantly increased"
"COc1ccc(C[C@@H](C)NC[C@H](O)c2cc(O)cc(O)c2)cc1.O=C(O)/C=C/C(=O)O [(R,R)-2, (R,R)-(−)-1-p-Methoxyphenyl-2-(β-3′,5′-dihydroxy-phenyl-β-oxy)ethylamino-propane Fumarate]",580 ng/mL,410 ng/mL,260 ng/mL,170 ng/mL,120 ng/mL,70 ng/mL,60 ng/mL,4.6437 µg/mL,96.1011 µg·min/mL,0.3900 µg/mL,–,–,–,significantly higher,–,–,"Individual plasma concentration ([1]; 300 min, listed as (R,R)-methoxyfenoterol): 0.06 ug/ml and 0.07 ug/ml (3×) and 0.09 ug/ml; passage through the blood brain barrier [4]: capable of passing through the blood brain barrier; growth of 1321N1 xenograft [5]: inhibit growth"
"COc1ccc(C[C@@H](NC[C@H](O)c2cc(O)cc(O)c2)C(C)C)cc1 [(R,R)-4-methoxy-isopropylfenoterol]",–,–,–,–,–,–,–,–,–,–,–,–,–,–,> 10000 nM,–,"IC50 ([6]; [3H]-thymidine incorporation, 1321N1 cells, mean ± SD, n = 4, read-out: Mitogenesis Inhibition IC50): 946 nM"
"CC[C@H](Cc1ccc(O)cc1)NC[C@H](O)c1cc(O)cc(O)c1 [(R,R)-ethylfenoterol, (R,R)-(−)-ethylfenoterol]",–,–,–,–,–,–,–,–,–,–,–,–,–,–,8550 nM,1.44 nM,–
"C[C@@H](Cc1cccc2ccccc12)NC[C@H](O)c1cc(O)cc(O)c1.O=C(O)/C=C/C(=O)O [(R,S)-5, (R,S)-(−)-5-{1-hydroxy-2-[1-methyl-2-(1-naphthyl)ethylamino]ethyl}-1,3-benzenediol fumarate]",680 ng/mL,430 ng/mL,340 ng/mL,240 ng/mL,120 ng/mL,110 ng/mL,90 ng/mL,4.0365 µg/mL,116.88 µg·min/mL,0.4372 µg/mL,12.66 mL/min,18.11 min,2203.75 mL,significantly higher,–,–,"Individual plasma concentration ([1]; 5 min, listed as (R,S)-naphthylfenoterol, fumarate): 2.52 µg/mL and 2.10 µg/mL; Individual plasma concentration ([1]; 240 min, listed as (R,S)-naphthylfenoterol, fumarate): 0.11 ug/ml (3×) and 0.13 ug/ml (2×); Individual plasma concentration ([1]; 300 min, listed as (R,S)-naphthylfenoterol, fumarate): 0.10 ug/ml (2×) and 0.11 ug/ml (2×) and 0.12 ug/ml; Plasma concentration, Average ([1]; 5 min): 2110 ng/mL"
"CC[C@@H](Cc1ccc(O)cc1)NC[C@H](O)c1cc(O)cc(O)c1 [(R,S)-ethylfenoterol, (R,S)-(−)-ethylfenoterol]",–,–,–,–,–,–,–,–,–,–,–,–,–,–,–,17.9 ± 4.56 nM,–
